Results on three molecules are retold here after patent US4647586A, “Pharmaceutical oil-in-water type micro-emulsion” (priority 1984, dated 1987).

The subject of series [1] is Carrageenin-induced paw edema. The experiment in a line: Carrageenin-induced paw edema in rats [Test 2]. In kind it is in vivo, SD-strain male rats. As to the method:
(a) Experimental animals: SD-strain male rats (120-180 g).
A micro-emulsion containing ethyl 4-biphenylylacetate prepared as in Examples 11, 12, 13 and 14 given hereinafter was administered at a dose of 5 ml per kg of the animals. Venolipid® (Morishita Pharmaceutical Co., Ltd.) was used as a vehicle control. As control drugs, a solution or suspension of ethyl 4-biphenylylacetate in physiological saline containing 0.5% Cremophor EL® (Sigma Chemical Company, a solubilizing agent), 0.2% of polyethylene glycol 400 and 10% of dimethyl sulfoxide, a physiological saline solution of sodium 4-biphenylylacetate and a physiological saline solution of Aspirin DL-lysine [Venopirin®, Green Cross Co.] were used. As the vehicle control of the control drugs, the above solvents were used.
A 1% carrageenin solution in physiological saline was injected subcutaneously in an amount of 0.05 ml into the planter surface of the left hind paw of each rat via a 25 gauge needle fitted to a 0.25 ml syringe. One hour after carrageenin injection, the rats were randomized on the basis of the edema volume, and intravenous administration of the drugs and vehicles followed immediately. The volume of the left hind paw was measured by a plethysmometer (Ugo Basile) prior to the injection of the carrageenin solution and at 2, 3, 4, 5 and 6 hours after the carrageenin injection. As the volume of edema, an increase in the paw volume was taken.
The inhibition percents were calculated in accordance with the same calculation formula as in Test 1.
A general note: In the carrageenan paw model, swelling and tenderness develop within hours.

Series [2] relates to brewer's yeast-induced fever. The experiment in a line: Effects on body temperature in pyretic rats (antipyretic activity). In kind it is in vivo, SD-strain male rats. The conditions noted are these: iv, 17 hours after yeast; against vehicle control; read-out: ED50 (dose reducing body temperature by at least 1.5° C. in 50% of the rats). The protocol:
(a) Experimental animals SD-strain male rats (120-185 g).
(§1) (b) Test drugs: The same as in A-1 [Test 2].
Male Sprague-Dawley rats, weighing 120-185 g, were injected subcutaneously in the nape of the neck with 2 ml of a 20% suspension of dried brewers yeast in physiological saline. Drugs and vehicles were administered intravenously 17 hours after treatment of yeast suspension. Rectal temperature was recorded with a thermistor type thermometer (Natsume Seisakusho, BMA-77 Type) just prior to drug administration and at 1/2, 1, 2 and 4 hours after drug administration.

For series [3] the following is noted: rat, in vivo.
Description: (a) Experimental animals: Wistar-strain male rats (body weight 60-220 g), 6 per group.
The rats were periodically killed, and the major organs were extracted. The concentration of the drug in the tissues were measured by the conventional HPLC method.
Series [4] concerns Adjuvant-induced polyarthritis. The experiment in a line: Adjuvant-induced polyarthritis in rats, adjuvant-injected paw [Test 2]. In kind it is in vivo, SD-strain female rats. As to the method: (a) Experimental animals: SD-strain famale rats 140-180g).
as §1
Rats were anesthetized with ether inhalation, and 0.6 mg of Mycobacterium butyricum suspended in 0.1 ml of white paraffin oil was immediately injected intradermally into the planter surface of the left hind paw of each rat via a 27 gauge needle fitted to a 0.5 ml syringe (day 0). On the 14th day after the adjuvant injection, arthritis-established rats selected by development of secondary lesions were used. Volumes of both hind paws in arthritis-established rats were measured by a plethysmometer (UGO BASILE), and the rats were randomized on the basis of the edema volume in the adjuvant-injected paw. Once daily, beginning on the 14th day up to the 18th day, drugs and vehicles were administered intravenously. Measurements of both paw volumes were performed every day from the 15th day up to the 18th day, and on the 21st day and the 24th day. The inhibition percent were calculated in accordance with the calculation formula as in [Test 1] of A-1.

The test system of series [5] is synthesis of prostaglandin. The note with it: E. L. Tolman, American Cyanamid Company's report; cited from earlier work.
For series [6] the following is noted: in vivo, po; cited from earlier work.

Molecules are shown by their SMILES.

A word on the ED50: it is the midpoint of the dose-response relation. With `CCOC(=O)Cc1ccc(-c2ccccc2)cc1` [Ethyl 4-biphenylylacetate], the “Inhibition (%)” value turned out to be 14.0% in series [1] (1.25 mg/kg i.v. as 4-biphenylylacetic acid, 2 h after carrageenin); 17.5% in series [1] (1.25 mg/kg i.v. as 4-biphenylylacetic acid, 3 h after carrageenin); 9.6% in series [1] (1.25 mg/kg i.v. as 4-biphenylylacetic acid, 4 h after carrageenin); 9.8% in series [1] (1.25 mg/kg i.v. as 4-biphenylylacetic acid, 5 h after carrageenin); 6.4% in series [1] (1.25 mg/kg i.v. as 4-biphenylylacetic acid, 6 h after carrageenin); 19.3% in series [1] (2.5 mg/kg i.v. as 4-biphenylylacetic acid, 2 h after carrageenin). The “Inhibition (%)” value in series [1] (2.5 mg/kg i.v. as 4-biphenylylacetic acid, 3 h after carrageenin) amounted to 26.3%; in series [1] (2.5 mg/kg i.v. as 4-biphenylylacetic acid, 4 h after carrageenin), 17.3%; in series [1] (2.5 mg/kg i.v. as 4-biphenylylacetic acid, 5 h after carrageenin) it was 17.6%; in series [1] (2.5 mg/kg i.v. as 4-biphenylylacetic acid, 6 h after carrageenin), 12.8%; in series [1] (5.0 mg/kg i.v. as 4-biphenylylacetic acid, 2 h after carrageenin), 17.5%; in series [1] (5.0 mg/kg i.v. as 4-biphenylylacetic acid, 3 h after carrageenin), 28.1%. For the same molecule, the “Inhibition (%)” value in series [1] (5.0 mg/kg i.v. as 4-biphenylylacetic acid, 4 h after carrageenin) worked out at 23.1%; in series [1] (5.0 mg/kg i.v. as 4-biphenylylacetic acid, 5 h after carrageenin), 23.5%; in series [1] (5.0 mg/kg i.v. as 4-biphenylylacetic acid, 6 h after carrageenin), 19.1%; in series [1] (10.0 mg/kg i.v. as 4-biphenylylacetic acid, 2 h after carrageenin), 22.8%; in series [1] (10.0 mg/kg i.v. as 4-biphenylylacetic acid, 3 h after carrageenin), 22.8%; in series [1] (10.0 mg/kg i.v. as 4-biphenylylacetic acid, 4 h after carrageenin), 26.9%. Also, the “Inhibition (%)” value in series [1] (10.0 mg/kg i.v. as 4-biphenylylacetic acid, 5 h after carrageenin) is 25.5%; in series [1] (10.0 mg/kg i.v. as 4-biphenylylacetic acid, 6 h after carrageenin) it was 27.7%; in series [4] (1.25 mg/kg/day i.v. as 4-biphenylylacetic acid, day 15), -8.0%; in series [4] (1.25 mg/kg/day i.v. as 4-biphenylylacetic acid, day 16), -5.1%; in series [4] (1.25 mg/kg/day i.v. as 4-biphenylylacetic acid, day 17), -3.3%; in series [4] (1.25 mg/kg/day i.v. as 4-biphenylylacetic acid, day 18), -4.6%. Moreover, the “Inhibition (%)” value in series [4] (1.25 mg/kg/day i.v. as 4-biphenylylacetic acid, day 21) is -19.2%; in series [4] (1.25 mg/kg/day i.v. as 4-biphenylylacetic acid, day 24), -23.2%; in series [4] (2.5 mg/kg/day i.v. as 4-biphenylylacetic acid, day 15), -3.7%; in series [4] (2.5 mg/kg/day i.v. as 4-biphenylylacetic acid, day 16) it was 0%; in series [4] (2.5 mg/kg/day i.v. as 4-biphenylylacetic acid, day 17), 6.7%; in series [4] (2.5 mg/kg/day i.v. as 4-biphenylylacetic acid, day 18), 5.8%. For the same molecule, the “Inhibition (%)” value in series [4] (2.5 mg/kg/day i.v. as 4-biphenylylacetic acid, day 21) is on record as -6.5%; in series [4] (2.5 mg/kg/day i.v. as 4-biphenylylacetic acid, day 24), -17.5%; in series [4] (5.0 mg/kg/day i.v. as 4-biphenylylacetic acid, day 15), 5.6%; in series [4] (5.0 mg/kg/day i.v. as 4-biphenylylacetic acid, day 16), 7.2%; in series [4] (5.0 mg/kg/day i.v. as 4-biphenylylacetic acid, day 17), 15.5%; in series [4] (5.0 mg/kg/day i.v. as 4-biphenylylacetic acid, day 18), 15.0%. Besides, the “Inhibition (%)” value in series [4] (5.0 mg/kg/day i.v. as 4-biphenylylacetic acid, day 21) is on record as 8.9%; in series [4] (5.0 mg/kg/day i.v. as 4-biphenylylacetic acid, day 24) it was 1.3%; in series [4] (10.0 mg/kg/day i.v. as 4-biphenylylacetic acid, day 15), 2.8%; in series [4] (10.0 mg/kg/day i.v. as 4-biphenylylacetic acid, day 16), 10.7%; in series [4] (10.0 mg/kg/day i.v. as 4-biphenylylacetic acid, day 17) it was 15.2%; in series [4] (10.0 mg/kg/day i.v. as 4-biphenylylacetic acid, day 18), 15.6%. Moreover, the “Inhibition (%)” value in series [4] (10.0 mg/kg/day i.v. as 4-biphenylylacetic acid, day 21) was 3.0%; in series [4] (10.0 mg/kg/day i.v. as 4-biphenylylacetic acid, day 24), -9.8%. The ED30 in series [1] (Rattus norvegicus, iv, read-out: ED30 (dose required to cause a 30% inhibition of edema volume)) is 15.8 mg/kg. In addition, the ED50 in series [2] amounted to 3.1 mg/kg. Further, the “Transferability to the tissues” value in series [3] is given as “showed the same transferability to the tissues”. Also, the ED20 in series [4] (Rattus norvegicus, iv, read-out: ED20 (dose required to cause a 20% inhibition of adjuvant-injected paw volume)) worked out at 14.5 mg/kg.
As to `O=C(O)Cc1ccc(-c2ccccc2)cc1` [4-biphenylylacetic acid, 4-Biphenylylacetic acid], in series [5], the “IC50, inhibition of synthesis of prostaglandin” value is 0.68 ng/mL.
With `O=C(O)CCC(=O)c1ccc(-c2ccccc2)cc1` [Fenbufen, 4-(4-biphenyl)-4-oxobutyric acid], the “Side effects on the digestive organs” value in series [6] was “considerably reduced as compared with conventional non-steroidal anti-inflammatory agents”.
